One assay deals with ZR-75-1. Kind of assay: CellTiter-Glo (CTG) EC50, ZR-75-1 breast cancer control cell line. Format: cell-based, human. The conditions noted are these: Homo sapiens. Here is the method: (§1) Cell line authenticity was confirmed by STR analysis at Eurofins Genomics. All cell lines were tested regularly for mycoplasma contamination using the Mycoplasmacheck Service at Eurofins Genomics. […] Following incubation for 24 h in a humidified atmosphere at 37 °C and 5% CO2, cells were treated with inhibitors in serial dilutions ranging from 30 µM down to 0.1 nM using an Echo650 acoustic liquid handler (Beckman Coulter). Cell viability was analyzed on day 5 using the CellTiter-Glo® assay (Promega) using 500 ms integration time. The obtained data were normalized to the plate positive control (30 µM staurosporine) and negative control (DMSO) and subsequently analyzed and fitted with the Quattro Software Suite (Quattro Research) using a four-parameter logistic model. As quality control, the Z’-factor was calculated from 16 positive and negative control values. Only assay results showing a Z’-factor ≥0.5 were used for further analysis. All experimental points were measured in duplicates for each plate and were independently replicated in at least three plates.

The subject of another assay is MDA-MB-175VII. Briefly: CellTiter-Glo (CTG) EC50, MDA-MB-175VII breast cancer control cell line. As to conditions: Homo sapiens, MDA-MB-175-VII. Format: cell-based, human. The procedure: as §1
A further assay concerns GIST-T1. Kind of assay: CellTiter-Glo (CTG) GR50, GIST-T1. As to conditions: Homo sapiens.
Another assay deals with T1-T670I. Kind of assay: CellTiter-Glo (CTG) GR50, T1-T670I. As to conditions: Homo sapiens.
A further assay relates to T1-V654A. Briefly: CellTiter-Glo (CTG) GR50, T1-V654A. The conditions noted are these: Homo sapiens.
The subject of another assay is T1-a-5258. Kind of assay: CellTiter-Glo (CTG) GR50, T1-a-5258. The conditions noted are these: Homo sapiens.
Another assay has as its system SK-LMS-1. Kind of assay: CellTiter-Glo (CTG) GR50, SK-LMS-1 control cell line. The conditions noted are these: for CTG GR50 SK-LMS-1, single determinations: raw data of Supp. Tab. 2, independent experiments, unit from Supp. Tab. 2; for CTG GR50 SK-LMS-1: mean ± s.d., n = 3, control cell line.
A further assay concerns the target T1, PDGFRA-D842V (Homo sapiens, UniProt P16234, D842V).
T1 construct: purchased Invitrogen PV4203 (lot #2343231B)
Briefly: Activity-based HTRF KinEASE assay, PDGFRA-D842V. The format is biochemical.

A further assay deals with KIT-D816H (Homo sapiens, UniProt P10721, D816H). Briefly: Activity-based HTRF KinEASE assay, KIT-D816H. Format: biochemical.
Sequence of KIT-D816H (P10721 26-976 D816H): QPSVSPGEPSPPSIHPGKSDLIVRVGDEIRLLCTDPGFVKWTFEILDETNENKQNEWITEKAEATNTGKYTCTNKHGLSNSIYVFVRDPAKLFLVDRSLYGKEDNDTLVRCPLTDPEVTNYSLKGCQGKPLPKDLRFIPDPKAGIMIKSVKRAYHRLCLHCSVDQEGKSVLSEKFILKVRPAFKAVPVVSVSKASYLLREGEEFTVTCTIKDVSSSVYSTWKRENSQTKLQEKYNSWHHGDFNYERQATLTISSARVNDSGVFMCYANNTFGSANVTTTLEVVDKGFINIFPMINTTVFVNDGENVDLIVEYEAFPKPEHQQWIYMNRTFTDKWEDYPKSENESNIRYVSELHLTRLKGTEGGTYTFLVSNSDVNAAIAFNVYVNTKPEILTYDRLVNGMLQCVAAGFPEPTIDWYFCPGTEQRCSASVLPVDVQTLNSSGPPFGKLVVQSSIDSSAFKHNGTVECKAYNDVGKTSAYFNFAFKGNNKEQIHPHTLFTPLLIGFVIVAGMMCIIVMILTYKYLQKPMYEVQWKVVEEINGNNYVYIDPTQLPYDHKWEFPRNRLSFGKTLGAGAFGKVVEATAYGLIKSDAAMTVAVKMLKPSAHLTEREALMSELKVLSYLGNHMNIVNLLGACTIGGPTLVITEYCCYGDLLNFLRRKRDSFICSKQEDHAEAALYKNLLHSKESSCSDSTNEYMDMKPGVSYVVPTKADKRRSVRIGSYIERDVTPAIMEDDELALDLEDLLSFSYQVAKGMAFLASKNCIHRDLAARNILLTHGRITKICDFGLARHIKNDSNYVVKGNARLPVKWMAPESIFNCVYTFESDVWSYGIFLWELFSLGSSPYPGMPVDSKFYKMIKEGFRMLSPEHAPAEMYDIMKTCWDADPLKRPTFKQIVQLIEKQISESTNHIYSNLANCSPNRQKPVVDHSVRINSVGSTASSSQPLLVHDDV
Another assay has as its system GIST-48B. Kind of assay: CellTiter-Glo (CTG) GR50, GIST-48B control cell line (off-target toxicity). The conditions noted are these: ratio of GR50 values; for GIST-48B/D842V: source data sheet.
[1] abbreviates: ZR-75-1, mean ± s.d., n = 3, control cell line, read-out: CTG EC50 ZR-75-1.
The mark [2] stands for this setting: ZR-75-1, raw data of Supp. Tab. 2, independent experiments, unit from Supp. Tab. 2, read-out: CTG EC50 ZR-75-1, single determinations.
Where [3] appears, read: read-out: CTG EC50 MDA-MB-175VII, mean ± s.d., n = 3, control cell line.
Where [4] appears, read: read-out: CTG EC50 MDA-MB-175VII, single determinations, raw data of Supp. Tab. 2, independent experiments, unit from Supp. Tab. 2.
The mark [5] stands for this setting: GISTT1, read-out: KIT CTG GR50 GIST-T1, mean ± s.d., n ≥ 3, GR50 half-maximal growth inhibition rate.
Setting [6] is: read-out: CTG GR50 T1-T670I, single determinations, raw data of Supp. Tab. 1, independent experiments, unit from Supp. Tab. 1.
[7] abbreviates: read-out: KIT CTG GR50 T1-T670I, mean ± s.d., n ≥ 3.
The mark [8] stands for this setting: read-out: CTG GR50 T1-V654A, single determinations, raw data of Supp. Tab. 1, independent experiments, unit from Supp. Tab. 1.
[9] abbreviates: read-out: KIT CTG GR50 T1-V654A, mean ± s.d., n ≥ 3 (* n = 2 for ava).
[10] abbreviates: read-out: CTG GR50 T1-a-5258, single determinations, raw data of Supp. Tab. 1, independent experiments, unit from Supp. Tab. 1.
Setting [11] is: read-out: PDGFRA CTG GR50 T1-a-5258, mean ± s.d., n ≥ 3, triple mutant D842V, G652E, V658A.
Where [12] appears, read: mean ± s.d., n ≥ 3, ATP at KM (14 µM), read-out: HTRF IC50 PDGFRA-D842V.
[13] abbreviates: raw data of Table 1, independent experiments 1-3, unit from Table 1, read-out: HTRF IC50 PDGFRA-D842V, single determinations.
[14] abbreviates: mean ± s.d., n ≥ 3, ATP at KM (12 µM), read-out: HTRF IC50 KIT-D816H.
Setting [15] is: raw data of Table 1, independent experiments, unit from Table 1, read-out: HTRF IC50 KIT-D816H, single determinations.
[16] abbreviates: GISTT1, read-out: CTG GR50 GIST-T1, single determinations, raw data of Table 1, independent experiments, unit from Table 1.

Values joined by “and” are separate entries in the source; they are usually repeats but may differ in a detail not shown here. Equal values may be shown once. Read-outs that look alike come from different tables or passages of the source.

T1 sequence (P16234 24-1089 D842V): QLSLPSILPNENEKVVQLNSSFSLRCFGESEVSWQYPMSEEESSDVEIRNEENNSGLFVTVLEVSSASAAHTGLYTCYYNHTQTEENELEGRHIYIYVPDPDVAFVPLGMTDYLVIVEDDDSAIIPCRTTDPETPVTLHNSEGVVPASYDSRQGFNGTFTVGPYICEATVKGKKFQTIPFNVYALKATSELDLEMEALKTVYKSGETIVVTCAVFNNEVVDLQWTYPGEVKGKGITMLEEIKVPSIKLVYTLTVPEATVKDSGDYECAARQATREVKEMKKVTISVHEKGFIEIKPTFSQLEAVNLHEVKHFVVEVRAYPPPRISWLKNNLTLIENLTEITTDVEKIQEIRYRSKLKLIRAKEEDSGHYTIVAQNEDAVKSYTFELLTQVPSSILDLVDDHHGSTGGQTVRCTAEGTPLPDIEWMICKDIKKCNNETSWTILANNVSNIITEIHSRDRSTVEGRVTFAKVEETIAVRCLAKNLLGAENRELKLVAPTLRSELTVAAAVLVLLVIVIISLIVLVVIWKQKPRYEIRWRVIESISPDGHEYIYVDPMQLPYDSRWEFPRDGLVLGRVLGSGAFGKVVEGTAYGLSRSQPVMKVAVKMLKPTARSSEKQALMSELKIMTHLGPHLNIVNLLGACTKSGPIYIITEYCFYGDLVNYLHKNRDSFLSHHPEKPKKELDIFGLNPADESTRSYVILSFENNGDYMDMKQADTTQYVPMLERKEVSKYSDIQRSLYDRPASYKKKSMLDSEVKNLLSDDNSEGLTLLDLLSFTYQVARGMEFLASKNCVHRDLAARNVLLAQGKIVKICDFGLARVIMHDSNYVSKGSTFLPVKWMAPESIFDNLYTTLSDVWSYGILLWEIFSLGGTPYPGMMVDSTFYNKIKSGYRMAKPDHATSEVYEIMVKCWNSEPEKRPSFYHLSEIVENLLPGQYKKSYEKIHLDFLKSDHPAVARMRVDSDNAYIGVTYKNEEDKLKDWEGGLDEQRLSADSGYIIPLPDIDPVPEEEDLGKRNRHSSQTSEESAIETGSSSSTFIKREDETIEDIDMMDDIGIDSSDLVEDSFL

In the case of `Cn1cc(-c2cc3c(N4CCN(c5ncc(Cc6ccccc6)cn5)CC4)ncnn3c2)cn1` [Compound 5], the EC50 with ZR-75-1 (setting [1]), in the assay on ZR-75-1 (setting [2]), in the assay with MDA-MB-175VII (setting [3]) and with MDA-MB-175VII (setting [4]) was at least 10 µM throughout. Further, the GI50 in the assay with GIST-T1 (setting [5]) is 1480 ± 1200 nM; in the assay on T1-T670I (setting [6]), at least 10000 nM; in the assay on T1-T670I (setting [7]), at least 10000 nM; in the assay on T1-V654A (setting [8]), at least 10000 nM; with T1-V654A (setting [9]), at least 10000 nM; in the assay on T1-a-5258 (setting [10]), 6.6 µM. Moreover, the GI50 with T1-a-5258 (setting [11]) was found to be 8.26 ± 1.7 µM. Besides, the “CTG GR50 SK-LMS-1, single determinations” value in the assay with SK-LMS-1 is at least 10 µM.
On to `Cn1cc(-c2cc3c(N4CC5(CN(c6ncc(Cc7ccccc7)cn6)C5)C4)ncnn3c2)cn1` [Compound 6], for which the IC50 at PDGFRA-D842V (setting [12]) is 7350 ± 884 nM; on PDGFRA-D842V (setting [13]), 6110 nM and 7810 nM and 8130 nM; on KIT-D816H (setting [14]), 2160 ± 167 nM; on KIT-D816H (setting [15]), 2280 nM and 2040 nM. The EC50 in the assay with ZR-75-1 (setting [1]), with ZR-75-1 (setting [2]), in the assay on MDA-MB-175VII (setting [3]) and with MDA-MB-175VII (setting [4]) was at least 10 µM throughout. In addition, the GI50 with GIST-T1 (setting [16]), in the assay on GIST-T1 (setting [5]), in the assay with T1-T670I (setting [6]), in the assay on T1-T670I (setting [7]), in the assay with T1-V654A (setting [8]) and in the assay with T1-V654A (setting [9]) was at least 10000 nM throughout. Besides, the GI50 in the assay on T1-a-5258 (setting [10]) is 8.79 µM; in the assay on T1-a-5258 (setting [11]) it was 9.53 ± 0.65 µM. For the same compound, in the assay on SK-LMS-1, the “CTG GR50 SK-LMS-1, single determinations” value was at least 10 µM. Further, in the assay on GIST-48B, the “ratio GIST-48B/ T1-a-D842V” value is recorded as 1. In addition, the GIST-48B/D842V in the assay on GIST-48B is given as 1.
Take `CN(C)[C@@](C)(c1ccc(F)cc1)c1cnc(N2CCN(c3ncnn4cc(-c5cnn(C)c5)cc34)CC2)nc1` [Compound 8]: on PDGFRA-D842V (HTRF IC50, PDGFRA-D842V and KIT-D816H), the “fold decrease in potency at the biochemical level compared to avapritinib” value was 3–5 fold. Moreover, the half-inhibitory concentration (IC50) is 0.4 ± 0.1 nM on PDGFRA-D842V (setting [12]); 0.28 nM and 0.38 nM and 0.56 nM at PDGFRA-D842V (setting [13]); 2.3 ± 1.7 nM on KIT-D816H (setting [14]); 3.5 nM and 2.4 nM and 1.1 nM at KIT-D816H (setting [15]). Further, the EC50 in the assay on ZR-75-1 (setting [1]), in the assay with ZR-75-1 (setting [2]), in the assay with MDA-MB-175VII (setting [3]) and with MDA-MB-175VII (setting [4]) was at least 10 µM each time. The GI50 was determined as 350 nM in the assay on GIST-T1 (setting [16]); 254 ± 74 nM in the assay on GIST-T1 (setting [5]); 2770 nM in the assay with T1-T670I (setting [6]); 2560 ± 258 nM in the assay with T1-T670I (setting [7]); 999 nM with T1-V654A (setting [8]); 1170 ± 264 nM in the assay with T1-V654A (setting [9]). Also, the GI50 with T1-a-5258 (setting [10]) came out at 1.4 µM; in the assay with T1-a-5258 (setting [11]), 1.66 ± 0.25 µM. The “CTG GR50 SK-LMS-1” value in the assay on SK-LMS-1 was 8.631 ± 2.371 µM and 8.631 µM. The “CTG GR50 SK-LMS-1, single determinations” value in the assay with SK-LMS-1 was 5.894 µM and 10 µM. Besides, the “ratio GIST-48B/ T1-a-D842V” value in the assay on GIST-48B came out at 33. In addition, the GIST-48B/D842V with GIST-48B amounted to 33.
Take `CCN[C@@](C)(c1ccc(F)cc1)c1cnc(N2CCN(c3ncnn4cc(-c5cnn(C)c5)cc34)CC2)nc1` [Compound 9]: the IC50 was under 0.1 nM at PDGFRA-D842V (setting [12]); under 0.1 nM at PDGFRA-D842V (setting [13]); 0.4 ± 0.2 nM on KIT-D816H (setting [14]); 0.26 nM and 0.54 nM and 0.27 nM at KIT-D816H (setting [15]). For the same compound, the EC50 with ZR-75-1 (setting [1]), with ZR-75-1 (setting [2]), in the assay with MDA-MB-175VII (setting [3]) and with MDA-MB-175VII (setting [4]) was at least 10 µM in each case. Also, the GI50 with GIST-T1 (setting [16]) is 109 nM; with GIST-T1 (setting [5]), 92 ± 16 nM; in the assay with T1-T670I (setting [6]), 1330 nM; in the assay on T1-T670I (setting [7]), 1500 ± 223 nM; in the assay with T1-V654A (setting [8]) it was 532 nM; in the assay with T1-V654A (setting [9]), 575 ± 159 nM. The GI50 came to 1.16 µM with T1-a-5258 (setting [10]) and 1.33 ± 0.22 µM in the assay with T1-a-5258 (setting [11]). Also, the “CTG GR50 SK-LMS-1” value in the assay on SK-LMS-1 was 9.041 ± 1.661 µM and 9.041 µM. Also, in the assay on SK-LMS-1, the “CTG GR50 SK-LMS-1, single determinations” value is 7.123 µM and 10 µM. Further, the “ratio GIST-48B/ T1-a-D842V” value in the assay with GIST-48B is listed as 155. Further, the GIST-48B/D842V with GIST-48B stood at 155.

The record behind these values is publication PMC10761696, “Avapritinib-based SAR studies unveil a binding pocket in KIT and PDGFRA” (Nature Communications, 2024).
